From US20130184272A1, “DIABETES THERAPEUTIC AGENT” (TAKEDA PHARMACEUTICAL COMPANY LIMITED, priority 2010, published 2013) come the findings set out here.

One experiment deals with Female KKA^y mice. As to the kind of experiment: Anti-diabetes action and dyslipidemia improving effect in KKA^y mouse. The format is in vivo. Particulars: 2 weeks, control group = 100. The protocol:
Female KKA^y mice (12-week-old, CLEA Japan, Inc.) were bred while allowing free ingestion of both feed and water. The mice were bred for acclimation with powder CE-2 (CLEA Japan, Inc.) from 2 weeks before administration of the compound. The body weight and plasma markers were measured and, at 14 weeks of age, they were divided such that the measured values were uniform with those of the control group. The compound of Reference Example 1, 2, 7, 8, 9 or 22 was administered for 2 weeks in a mixed feed (0.01-0.0001%). On the last day, plasma levels of glucose, insulin, total cholesterol and neutral lipid were measured.

The subject of experiment [1] is Mouse-derived myoblast line C2C12 cell. As to the kind of experiment: Cell differentiation promoting activity in myoblast (creatine kinase activity). The format is cell-based. Particulars: Mus musculus, C2C12, 48 h, 2 days, without compound = 100%, read-out: creatine kinase activating action (%); for activity at 0.01 µM: compound at 0.01 μM (**); for activity at 1 µM: compound at 1 μM. As for the experimental part: • (1) Mouse-derived myoblast line C2C12 cell (Dainippon Pharmaceutical Co., Ltd.) was subcultured in a high glucose Eagle's modified Dulbecco's medium (GIBCO) added with 10% calf fetal bovine serum (GIBCO), 100 unit/mL penicillin and 100 μg/mL streptomycin (hereinafter to be referred to as a growth medium), plated at 5000 cells/cm^2 and cultured at 37° C., under 5% CO2. • (2) When the cells reached subconfluence of not less than 90%, the medium was exchanged with high glucose Eagle's modified Dulbecco's medium (GIBCO) added with (i) 2% horse serum (GIBCO) and (ii) penicillin, streptomycin and a test compound (hereinafter to be referred to as a differentiation medium) and the cells were cultured for 2 days. To the control group was added DMSO solution instead of the test compound. • (3) The cells were washed with PBS, 0.5% NP-40 solution was added, and the cells were lysed by freeze-thawing. The cell extract was centrifuged and the creatine kinase activity in the supernatant was measured as an index of muscle differentiation. The creatine kinase activity was measured using CPKII Test Wako (Wako Pure Chemical Industries, Ltd.) according to the manual of the kit.
The numerical values in Table 1 show creatine kinase activity of the compound addition group when the creatine kinase activity without addition of the compound is 100%, and * means measurement with addition of the compound at 10 μM, ** at 0.01 μM, and others at 1 μM.

For a further experiment, the system named is C2C12 cell. As to the kind of experiment: Sugar metabolism promoting activity in muscle cell (lactic acid production). The format is cell-based, Mouse. The note with it: Mus musculus, 48 h; compound 1 μM, 2 days, C2C12 myotubes; without drug = 100%; read-out: lactic acid production promoting action (%). The protocol: • (1) In the same manner as in Example 1, C2C12 cell was cultured in a growth medium. After reaching subconfluence of not less than 90%, the medium was exchanged with a differentiation medium and the cells were cultured for about 7 days while exchanging the medium every 2 or 3 days until the cells differentiated to form a myotube. • (2) After confirmation of myotube formation under a microscope, the test compound (1 μM) was added to a differentiation medium and cultured for 2 days. The cells were washed with Krebs-Ringer HEPES phosphate buffer (10 mM HEPES, pH 7.4, 131 mM NaCl, 4.7 mM KCl, 2.5 mM CaCl2—2H2O, 1.2 mM MgSO4—7H2O, 1.2 mM KH2PO4), the medium was exchanged with Krebs-Ringer HEPES phosphate buffer added with 5 mM glucose, 0.2% fatty acid-free bovine serum albumin, and cultured at 37° C. for 4 hr. • (3) The lactic acid concentration of the culture supernatant was measured using Detarminer LA kit (Kyowa Medex Co., Ltd.).
The numerical values in Table 2 show the concentration of the compound addition group with the concentration of lactic acid without addition of a drug as 100%.

For `Cn1ncc2c1-c1c(Oc3ccc4c(c3)OCO4)sc(C(N)=O)c1CC2` [Ref. Ex. 9, 8-(1,3-benzodioxol-5-yloxy)-1-methyl-4,5-dihydro-1H-thieno[3,4-g]indazole-6-carboxamide], in the experiment on Female KKA^y mice (mixed feed dose 0.001 %), the “plasma glucose (%)” value was 42.9 ± 3.7%, the “plasma insulin (%)” value is listed as 13.7 ± 21.1%, the “plasma neutral lipid (%)” value turned out to be 51.0 ± 11.9% and the “plasma total cholesterol (%)” value is recorded as 74.5 ± 14.4%. Further, the activity at 0.01 µM in experiment [1] stood at 171%. The activity at 1 µM in the experiment on C2C12 cell is 196%.

For the compound `Cn1ncc2c1-c1c(Oc3ccc(F)cc3)sc(C(N)=O)c1CC2` [Ref. Ex. 2, 8-(4-fluorophenoxy)-1-methyl-4,5-dihydro-1H-thieno[3,4-g]indazole-6-carboxamide], in the experiment on Female KKA^y mice (mixed feed dose 0.0003 %), the “plasma glucose (%)” value is reported as 49.0 ± 7.1%, the “plasma neutral lipid (%)” value is listed as 40.4 ± 6.6% and the “plasma total cholesterol (%)” value amounted to 62.4 ± 7.1%. For the same compound, the activity at 0.01 µM in experiment [1] came to 175%. Also, the activity at 1 µM in the experiment with C2C12 cell came out at 159%.

As to `CCCCc1sc(C(N)=O)c2c1-c1c(cnn1C)CC2` [Ref. Ex. 14, 8-butyl-1-methyl-4,5-dihydro-1H-thieno[3,4-g]indazole-6-carboxamide], the activity at 1 µM in experiment [1] stood at 151%; in the experiment on C2C12 cell, 265%.

As to `CCCSc1sc(C(N)=O)c2c1-c1c(cnn1C)CC2` [Ref. Ex. 11, 1-methyl-8-(propylsulfanyl)-4,5-dihydro-1H-thieno[3,4-g]indazole-6-carboxamide], the activity at 1 µM in experiment [1] came to 198%; in the experiment with C2C12 cell it was 239%.

Turning to `Cn1ncc2c1-c1c(Oc3ccc(S(C)(=O)=O)cc3)sc(C(N)=O)c1CC2` [Ref. Ex. 19, 1-methyl-8-[4-(methylsulfonyl)phenoxy]-4,5-dihydro-1H-thieno[3,4-g]indazole-6-carboxamide], the activity at 1 µM in experiment [1] came out at 183%; in the experiment on C2C12 cell it was 209%.

Turning to `Cn1ncc2c1-c1c(Oc3ccc(OCc4ccccn4)cc3)sc(C(N)=O)c1CC2` [Ref. Ex. 27, 1-methyl-8-[4-(pyridin-2-ylmethoxy)phenoxy]-4,5-dihydro-1H-thieno[3,4-g]indazole-6-carboxamide], in experiment [1], the activity at 0.01 µM was determined as 163%. In the experiment with C2C12 cell, the activity at 1 µM was found to be 198%.

Turning to `COc1ncccc1Oc1sc(C(N)=O)c2c1-c1c(cnn1C)CC2` [Ref. Ex. 34, 8-[(2-methoxypyridin-3-yl)oxy]-1-methyl-4,5-dihydro-1H-thieno[3,4-g]indazole-6-carboxamide], the activity at 1 µM in experiment [1] stood at 164%; in the experiment with C2C12 cell, 249%.

On to `CCCOc1sc(C(N)=O)c2c1-c1c(cnn1C)CC2` [Ref. Ex. 3, 1-methyl-8-propoxy-4,5-dihydro-1H-thieno[3,4-g]indazole-6-carboxamide], for which the values for the activity at 1 µM (in experiment [1]; in the experiment with C2C12 cell) were 179% and 170%, respectively.

`Cn1ncc2c1-c1c(Oc3ccc4c(c3)OCO4)sc(C(=O)NCc3ccncc3)c1CC2` [Ref. Ex. 28, 8-(1,3-benzodioxol-5-yloxy)-1-methyl-N-(pyridin-4-ylmethyl)-4,5-dihydro-1H-thieno[3,4-g]indazole-6-carboxamide]: the figures for the activity at 1 µM (in experiment [1]; in the experiment on C2C12 cell) were 186% and 170%, respectively.

For the compound `Cn1ncc2c1-c1c(Oc3cnc4ccccc4c3)sc(C(N)=O)c1CC2` [Ref. Ex. 30, 1-methyl-8-(quinolin-3-yloxy)-4,5-dihydro-1H-thieno[3,4-g]indazole-6-carboxamide], the activity at 0.01 µM in experiment [1] worked out at 166%. Moreover, the activity at 1 µM in the experiment with C2C12 cell stood at 260%.

In the case of `CC(=O)Nc1ccc(Oc2sc(C(N)=O)c3c2-c2c(cnn2C)CC3)cc1` [Ref. Ex. 22, 8-[4-(acetylamino)phenoxy]-1-methyl-4,5-dihydro-1H-thieno[3,4-g]indazole-6-carboxamide], in the experiment with Female KKA^y mice (mixed feed dose 0.0003 %), the “plasma glucose (%)” value is on record as 60.9 ± 27.1%, the “plasma neutral lipid (%)” value is recorded as 42.3 ± 7.2% and the “plasma total cholesterol (%)” value was 71.0 ± 7.3%. Also, the activity at 0.01 µM in experiment [1] came out at 195%. Also, the activity at 1 µM in the experiment with C2C12 cell came to 311%.

In the case of `CN(CCOc1ncccc1Oc1sc(C(N)=O)c2c1-c1c(cnn1C)CC2)c1ccccc1` [Ref. Ex. 41, 1-methyl-8-[(2-{2-[methyl(phenyl)amino]ethoxy}pyridin-3-yl)oxy]-4,5-dihydro-1H-thieno[3,4-g]indazole-6-carboxamide], the activity at 1 µM in experiment [1] turned out to be 130%; with C2C12 cell, 120%.

On to `Cn1ncc2c1-c1c(Oc3ccc(OC(F)(F)F)cc3)sc(C(N)=O)c1CC2` [Ref. Ex. 8, 1-methyl-8-[4-(trifluoromethoxy)phenoxy]-4,5-dihydro-1H-thieno[3,4-g]indazole-6-carboxamide], for which, in the experiment on Female KKA^y mice (mixed feed dose 0.0003 %), the “plasma glucose (%)” value is 78.2 ± 22.2%, the “plasma neutral lipid (%)” value is given as 72.2 ± 22.1% and the “plasma total cholesterol (%)” value is given as 85.7 ± 11.5%. For the same compound, the activity at 0.01 µM in experiment [1] amounted to 190%. For the same compound, the activity at 1 µM with C2C12 cell stood at 274%.
